PMC11400632, “Substrate selectivity and inhibition of the human lysyl hydroxylase JMJD7” (Protein Science : A Publication of the Protein Society, 2024)
Each block holds one molecule with its values, some of them ahead of it. Square brackets hold non-standard residues; d marks the D form. Ends that are not written are not given here. Peptide text beside a SMILES is read from it. 4Pal = N[C@@H](Cc1ccncc1)C(=O)O; Met(O) = CS(=O)CC[C@H](N)C(=O)O; SeMet = C[Se]CC[C@H](N)C(=O)O; Nle = CCCC[C@H](N)C(=O)O

What was measured:
Assay type in all cases: biochemical
human JMJD7 [1] = molecular target: T1, human JMJD7 (Homo sapiens, UniProt P0C870); assay: LC-MS assay of JMJD7-catalyzed hydroxylation/oxidation of DRG1 peptides; conditions: for degree of oxidation (+16 Da) of cysteine/methionine analog peptides by JMJD7 / extent of hydroxylation by JMJD7 at higher 2OG concentration: 2 μM JMJD7, 10 μM peptide; for extent of hydroxylation (+16 Da) by JMJD7: standard conditions: 2 μM JMJD7, 10 μM DRG1 peptide, room temperature; for extent of hydroxylation by JMJD7 at higher 2OG concentration: 20 μM 2OG, pH 7.5, 2 h incubation; for fate of the JMJD7 C3-hydroxylation product: 2 h
T1 construct: human JMJD7 (residues 1–316) with an N‐terminal His6‐tag; His6 (N); made in house; host or cells: Escherichia coli Rosetta (DE3)
Description: Initial assays were carried out by incubation of purified recombinant (Markolovic et al., [2018]) human JMJD7 (2 μM) in the presence of a DRG1 derived peptide (10 μM), 2OG (10 μM), ferrous ammonium sulfate (FAS, 10 μM), and L‐ascorbate (LAA, 100 μM) in Tris buffer at pH 7.5 for 2 h at room temperature. Potential conversion to a hydroxylated product (+16 Da mass shift) was monitored by liquid‐chromatography‐mass‐spectrometry (LC–MS). […] The assay results also implied that DRG1‐Orn was hydroxylated, but to a lower extent (~21%) than DRG1‐Lys. […] The alcohol‐containing peptide hydroxynorleucine (DRG1‐HNle), was hydroxylated at relatively low levels (~24%), implying that H‐bonding interactions and positive charge of the N^ɛ‐amino group of lysine are important for efficient binding and catalysis, but that a neutral alcohol can still be accommodated at the active site (Figure 3f) (Markolovic et al., [2018]).
All reagents were procured from Sigma Aldrich. 2‐Oxoglutarate (2OG, 10 mM) and L‐ascorbic acid (LAA, 50 mM) solutions were prepared freshly by dissolving the solids in deionized water. Ferrous ammonium sulfate (FAS) solution was prepared freshly by dissolving FAS at 400 mM in 20 mM HCl with subsequent dilution to 1 mM using deionized water. JMJD7 assays using DRG1 (16–40) based peptides were performed with the following conditions: (i) 2 or 5 μM JMJD7, 10 μM DRG1 peptide, 100 μM LAA, 10 μM FAS, 10 μM 2OG in mM 50 Tris‐buffer (pH 7.5), (ii) 2 μM JMJD7, 10 μM DRG1 peptide, 100 μM LAA, 10 μM FAS, 20 μM 2OG in mM 50 Tris‐buffer (pH 7.5). Reactions were initiated by addition of enzyme to the cosubstrate/substrate solution in a final reaction volume of 50 μL with 2 h incubation at room temperature. A positive control reaction containing enzyme and a validated peptide substrate was included in all screening studies. After 2 h, reactions were stopped by addition of 5 μL of 10% (v/v) LC–MS grade formic acid (Fisher Scientific) and transferred to a 96 well plate (Agilent). Intact mass peptide analysis was performed by LC–MS using an Agilent 1290 infinity II LC system equipped with an Agilent 1290 multisampler and an Agilent 1290 high speed pump and connected to an Agilent 6550 accurate mass iFunnel quadrupole time of flight (Q‐TOF) mass spectrometer. The reaction mixture (4 μL) was injected and loaded onto a ZORBAX RRHD Eclipse Plus C18 column (Agilent). Solvent A consisted of LC–MS grade water containing 0.1% (v/v) formic acid and solvent B consisted of MeCN containing 0.1% (v/v) formic acid. Peptides were separated using a step wise gradient (0 min – 95% solvent A, 1.0 min – 80% solvent A, 3.0 min – 45% solvent A, 4.0 min – 45% solvent A, 5.0 min – 0% solvent A, 6.0 min – 0% solvent A, 7.0 min – 95% solvent A). This was followed by a 3 min elution with 95% solvent A to re‐equilibrate the column. Flow rates were 0.2 mL/min. The mass spectrometer was operated in the positive ion mode with a drying gas temperature (280°C), drying gas flow rate (13 L min^−1), nebulizer pressure (40 psig), sheath gas temperature (350°C), sheath gas flow rate (12 L min^−1), capillary voltage (4000 V), nozzle voltage (1000 V). Data were analyzed using Agilent MassHunter Qualitative Analysis (Version B.07.00) software.

human JMJD7 [2] = molecular target: T1, human JMJD7; assay: SPE-MS time-course and steady-state kinetics of JMJD7-catalyzed hydroxylation; conditions: for k cat/K m / k cat / K m: SPE-MS, DRG1 peptide 0.1–5.0 μM, 2OG 20 μM, FAS 10 μM, LAA 100 μM, JMJD7 100 nM; for k cat: in min^-1; for K m: in µM (unit assumed)
Description: Having shown that introduction of γ‐thialysine and γ‐azalysine residues into DRG1 peptides generates substrates that are efficiently hydroxylated by JMJD7, giving nascent products that fragment to give formylglycine, we explored whether these two peptides could compete with the DRG1‐Lys substrate for JMJD7 catalysis. The reactions of DRG1‐Lys, DRG1‐CysNH2 and DRG1‐LysN (1.0 μM) by JMJD7 (50 nM) were investigated as a function of time using SPE‐MS assays.
To quantify the relative efficiencies of DRG1‐Lys and the substrate analog DRG1‐LysE, we carried out kinetics analyses using SPE‐MS assays as the levels of JMJD7‐catalyzed hydroxylation were sufficient for these two substrates.
JMJD7 turnover assays for kinetic studies were performed in 96‐well polypropylene assay plates with 1.0 mL total reaction volume using a series of concentrations of the DRG1 peptide (0.1–5.0 μM), 2OG (20 μM), FAS (10 μM), LAA (100 μM). Reactions were initiated by the addition of JMJD7 (100 nM). MS‐analyses were performed using a RapidFire RF 365 high‐throughput sampling robot (Agilent) attached to an iFunnel Agilent 6550 accurate mass quadrupole time‐of‐flight (Q‐TOF) mass spectrometer operated in the positive ionization mode. The RapidFire RF 365 high‐throughput sampling robot was programmed to aspirate samples from the reaction mixture at the indicated time intervals. Assay samples were loaded onto a C4 solid phase extraction (SPE) cartridge and peptides were eluted using given previous protocols (Tumber et al., [2023]). The % conversion of the hydroxylation reaction were calculated from the ion chromatogram data by integrating peak areas using RapidFire Integrator 4.3.0 software (Agilent).

human JMJD7 [3] = molecular target: T1, human JMJD7; assay: MALDI-TOF MS JMJD7 inhibition assay; conditions: 200 nM JMJD7 preincubated 15 min with peptide (1 nM–150 μM); 5 μM DRG1-Lys (17–40) substrate, 10 μM 2OG, 25 min, room temperature, Tris pH 7.5, MALDI MS; duplicate (n = 2), ± SE; read-out: IC50 (JMJD7 inhibition, with 15 min preincubation)
[4] = 10 μM 2OG, 10 μM FAS, 100 μM LAA
[5] = 1.0 μM peptide, 50 nM JMJD7, SPE-MS time-course
[6] = 10 μM 2OG, 10 μM FAS, 100 μM LAA, Tris pH 7.5, 2 h
[7] = standard conditions: 2 μM JMJD7, 10 μM peptide, 10 μM 2OG

T1 sequence (P0C870 whole entry, the tested form may be a part): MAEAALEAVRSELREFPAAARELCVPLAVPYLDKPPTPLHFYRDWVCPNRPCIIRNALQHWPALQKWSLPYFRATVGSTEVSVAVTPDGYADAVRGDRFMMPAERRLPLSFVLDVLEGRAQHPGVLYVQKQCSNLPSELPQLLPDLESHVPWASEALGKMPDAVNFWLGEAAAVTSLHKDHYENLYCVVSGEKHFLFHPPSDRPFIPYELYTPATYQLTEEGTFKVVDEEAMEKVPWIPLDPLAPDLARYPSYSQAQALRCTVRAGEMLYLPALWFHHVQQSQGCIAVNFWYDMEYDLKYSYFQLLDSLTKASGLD

Molecule: ARTQKNMetATAHHLGLLKARLAKLRR [DRG1‐Met]
degree of oxidation (+16 Da) of cysteine/methionine analog peptides by JMJD7 (human JMJD7 [1]; [4]): ~ 86%
relative rate / turnover in the time-course (human JMJD7 [2]; [5]): turnover appeared to be low

Molecule: ARTQKNLysEATAHHLGLLKARLAKLRR [DRG1‐LysE, 25-mer DRG1 (16–40) peptide with (E)-dehydrolysine at position 22]
extent of hydroxylation (+16 Da) by JMJD7 (human JMJD7 [1]; [6]): 90%
k cat/K m (human JMJD7 [2]): 133000 M⁻¹ s⁻¹
k cat (human JMJD7 [2]): 24.7 ± 0.36
K m (human JMJD7 [2]): 3.1 ± 0.81

Molecule: ARTQKNhLysATAHHLGLLKARLAKLRR [DRG1‐hLys, 25-mer DRG1 (16–40) peptide with hLys at position 22]
extent of hydroxylation by JMJD7 at higher 2OG concentration (human JMJD7 [1]; 10 μM FAS, 100 μM LAA): ~ 5%
extent of hydroxylation (+16 Da) by JMJD7 (human JMJD7 [1]; [6]): did not undergo hydroxylation within detection limits

Molecule: ARTQKNAhpATAHHLGLLKARLAKLRR [DRG1‐Ahp, 25-mer DRG1 (16–40) peptide with Ahp at position 22]
extent of hydroxylation by JMJD7 at higher 2OG concentration (human JMJD7 [1]; 10 μM FAS, 100 μM LAA): did not manifest evidence for hydroxylation

Molecule: ARTQKNLysNATAHHLGLLKARLAKLRR [DRG1‐LysN, 25-mer DRG1 (16–40) peptide with γ-azalysine at position 22]
fate of the JMJD7 C3-hydroxylation product (human JMJD7 [1]; [7]): fragmentation to form DRG1‐formylglycine and its hydrated products
relative rate / turnover in the time-course (human JMJD7 [2]; [5]): oxidized more slowly than DRG1‐CysNH2

Molecule: CC(C)C[C@H](NC(=O)CNC(=O)[C@H](CC(C)C)NC(=O)[C@H](Cc1c[nH]cn1)NC(=O)[C@H](Cc1c[nH]cn1)NC(=O)[C@H](C)NC(=O)[C@@H](NC(=O)[C@H](C)NC(=O)[C@H](Cc1ccncc1)NC(=O)[C@H](CC(N)=O)NC(=O)[C@H](CCCCN)NC(=O)[C@H](CCC(N)=O)NC(=O)[C@@H](NC(=O)[C@H](CCCNC(=N)N)NC(=O)[C@H](C)N)[C@@H](C)O)[C@@H](C)O)C(=O)N[C@@H](CC(C)C)C(=O)N[C@@H](CCCCN)C(=O)N[C@@H](C)C(=O)N[C@@H](CCCNC(=N)N)C(=O)N[C@@H](CC(C)C)C(=O)N[C@@H](C)C(=O)N[C@@H](CCCCN)C(=O)N[C@@H](CC(C)C)C(=O)N[C@@H](CCCNC(=N)N)C(=O)N[C@@H](CCCNC(=N)N)C(N)=O [DRG1‐4pyrA] (H-ARTQKN[4Pal]ATAHHLGLLKARLAKLRR-NH2)
IC50 (human JMJD7 [3]): 15.2 µM

Molecule: ARTQKNLysMeATAHHLGLLKARLAKLRR [DRG1‐LysMe, 25-mer DRG1 (16–40) peptide with LysMe at position 22]
extent of hydroxylation by JMJD7 at higher 2OG concentration (human JMJD7 [1]; 10 μM FAS, 100 μM LAA): ~ 7%

Molecule: ARTQKNCysNHmeATAHHLGLLKARLAKLRR [DRG1‐CysNHMe, 25-mer DRG1 (16–40) peptide with γ-methylthialysine at position 22]
possibly stable hemithioacetal product detected by MS (human JMJD7 [1]; standard conditions: 2 μM JMJD7, 10 μM peptide, 10 μM 2OG, 10 μM FAS, 100 μM LAA, Tris pH 7.5, 2 h): 12%
fate of the JMJD7 C3-hydroxylation product (human JMJD7 [1]; [7]): fragmentation to form DRG1‐formylglycine and its hydrated products

Molecule: ARTQKND-LysATAHHLGLLKARLAKLRR [DRG1‐D‐Lys, 25-mer DRG1 (16–40) peptide with epimeric D-lysine at position 22]
extent of hydroxylation by JMJD7 at higher 2OG concentration (human JMJD7 [1]; 10 μM FAS, 100 μM LAA): ~ 6%
extent of hydroxylation (+16 Da) by JMJD7 (human JMJD7 [1]; [6]): not hydroxylated within detection limits

Molecule: ARTQKNnArgATAHHLGLLKARLAKLRR [DRG1‐nArg, 25-mer DRG1 (16–40) peptide with nArg at position 22]
extent of hydroxylation by JMJD7 at higher 2OG concentration (human JMJD7 [1]; 10 μM FAS, 100 μM LAA): did not manifest evidence for hydroxylation

Molecule: ARTQKNCysMeATAHHLGLLKARLAKLRR [DRG1‐CysMe, 25-mer DRG1 (16–40) peptide with CysMe at position 22]
degree of oxidation (+16 Da) of cysteine/methionine analog peptides by JMJD7 (human JMJD7 [1]; [4]): oxidized relatively efficiently

Molecule: ARTQKNLysATAHHLGLLKARLAKLRR [DRG1‐Lys, 25-mer DRG1 fragment peptide (residues 16–40), C-terminal amide, Lys at position 22; JMJD7 substrate, reference compound]
extent of hydroxylation by JMJD7 at higher 2OG concentration (human JMJD7 [1]; 10 μM FAS, 100 μM LAA): ~ 98%
extent of hydroxylation (+16 Da) by JMJD7 (human JMJD7 [1]; [6]): ~ 78%
hydroxylation within 9 min (human JMJD7 [2]; 1.0 μM peptide, 50 nM JMJD7, SPE-MS time-course, 9 min): ~ 90%
k cat/K m (human JMJD7 [2]): 155000 M⁻¹ s⁻¹
k cat (human JMJD7 [2]): 13.0 ± 0.36
K m (human JMJD7 [2]): 1.4 ± 0.59
substrate inhibition of JMJD7 (human JMJD7 [2]; increased substrate concentrations, 100 nM JMJD7, 20 μM 2OG, 10 μM FAS, 100 μM LAA, pH 7.5): substrate inhibition of JMJD7 was observed

Molecule: ARTQKNhMetATAHHLGLLKARLAKLRR [DRG1‐hMet, 25-mer DRG1 (16–40) peptide with homomethionine at position 22]
degree of oxidation (+16 Da) of cysteine/methionine analog peptides by JMJD7 (human JMJD7 [1]; [4]): ~ 89%

The next lines start with the values.

degree of oxidation (+16 Da) of cysteine/methionine analog peptides by JMJD7 (human JMJD7 [1]; [4]): showed no evidence for oxidation
Molecule: ARTQKN[Met(O)]ATAHHLGLLKARLAKLRR [DRG1‐MetO]

extent of hydroxylation by JMJD7 at higher 2OG concentration (human JMJD7 [1]; 10 μM FAS, 100 μM LAA): ~ 56%
extent of hydroxylation (+16 Da) by JMJD7 (human JMJD7 [1]; [6]): ~ 24%
relative rate / turnover in the time-course (human JMJD7 [2]; [5]): turnover was low
Molecule: ARTQKNH[Nle]ATAHHLGLLKARLAKLRR [DRG1‐HNle, 25-mer DRG1 (16–40) peptide with hydroxynorleucine at position 22]

degree of oxidation (+16 Da) of cysteine/methionine analog peptides by JMJD7 (human JMJD7 [1]; [4]): did also not undergo oxidation
Molecule: ARTQKNhSerATAHHLGLLKARLAKLRR [DRG1‐hSer, 25-mer DRG1 (16–40) peptide with hSer at position 22]

degree of oxidation (+16 Da) of cysteine/methionine analog peptides by JMJD7 (human JMJD7 [1]; [4]): showed no evidence for oxidation
Molecule: ARTQKNmeOhSerATAHHLGLLKARLAKLRR [DRG1‐meOhSer, 25-mer DRG1 (16–40) peptide with meOhSer at position 22]

degree of oxidation (+16 Da) of cysteine/methionine analog peptides by JMJD7 (human JMJD7 [1]; [4]): showed no evidence for oxidation
Molecule: ARTQKN[SeMet]ATAHHLGLLKARLAKLRR [DRG1‐SeMet, 25-mer DRG1 (16–40) peptide with SeMet at position 22]
